Tests used:
Format in all cases: functional
[1] = tested on: 786-0; assay: Antiproliferative activity against human 786-0 cells assessed as growth inhibition after 48 hrs by sulforhodamine B assay; details: 786-0, 48 h
[2] = tested on: HT-29; assay: Antiproliferative activity against human HT-29 cells assessed as growth inhibition after 48 hrs by sulforhodamine B assay; details: HT-29, 48 h
[3] = tested on: NCI/ADR-RES; assay: Antiproliferative activity against human NCI-ADR-RES cells assessed as growth inhibition after 48 hrs by sulforhodamine B assay
[4] = tested on: MCF7; assay: Antiproliferative activity against human MCF7 cells assessed as growth inhibition after 48 hrs by sulforhodamine B assay; details: MCF7, 48 h
[5] = tested on: OVCAR-3; assay: Antiproliferative activity against human OVCAR3 cells assessed as growth inhibition after 48 hrs by sulforhodamine B assay; details: OVCAR-3, 48 h
[6] = Antiproliferative activity against human UACC61 cells assessed as growth inhibition after 48 hrs by sulforhodamine B assay
[7] = tested on: PC-3; assay: Antiproliferative activity against human PC3 cells assessed as growth inhibition after 48 hrs by sulforhodamine B assay; details: PC-3, 48 h
[8] = tested on: K562; assay: Antiproliferative activity against human K562 cells assessed as growth inhibition after 48 hrs by sulforhodamine B assay; details: K562, 48 h
[9] = tested on: NCI-H460; assay: Antiproliferative activity against human NCI-H460 cells assessed as growth inhibition after 48 hrs by sulforhodamine B assay; details: NCI-H460, 48 h
[10] = tested on: U-251; assay: Antiproliferative activity against human U251 cells assessed as growth inhibition after 48 hrs by sulforhodamine B assay; details: U-251, 48 h

SMILES | GI50 [1] | GI50 [2] | GI50 [3] | GI50 [4] | GI50 [5] | GI50 [6] | GI50 [7] | GI50 [8] | GI50 [9] | GI50 [10]
COC(=O)c1cc2c([nH]c3ccccc32)c(-c2ccccc2)n1 | > 100 µM | > 100 µM | > 100 µM | > 100 µM | > 100 µM | 5.45 µM | > 100 µM | > 100 µM | > 100 µM | 
COC(=O)c1cc2c([nH]c3ccccc32)c(-c2ccccc2Cl)n1 | 42.4 µM | 25.3 µM | 27.6 µM | 36.4 µM | 21.6 µM | 5.76 µM | 22.3 µM | 13.5 µM | 26.8 µM | 
CCOC(=O)c1cc2c([nH]c3ccc(OC)cc32)c(-c2ccc(N(C)C)cc2)n1 | 1.4 µM | > 100 µM | 4.29 µM | > 100 µM | > 100 µM | 0.28 µM | 7.74 µM | > 100 µM | 12.7 µM | 0.95 µM
CCOC(=O)c1cc2c([nH]c3ccc(OC)cc32)c(-c2ccc(O)cc2)n1 | 7.51 µM | 7.74 µM | 6.54 µM | 6.57 µM | 0.66 µM | > 100 µM | 3.28 µM | 4.36 µM | 6.95 µM | 7.26 µM
COc1ccc(-c2nc(-c3nnnn3Cc3ccccc3)cc3c2[nH]c2ccccc23)cc1 | 2.17 µM | 18.3 µM | 2.7 µM | 1.32 µM | 1.62 µM | 88.1 µM | 5.73 µM | 7.14 µM | 1.59 µM | 3.82 µM
COC(=O)c1cc2c([nH]c3ccccc32)c(-c2ccc(OC)cc2)n1 | 32.7 µM | 24.8 µM | 1.11 µM | 52.7 µM | 39.4 µM | 2.61 µM | 10.2 µM | 0.04 µM | 0.38 µM | 
CCOC(=O)c1cc2c([nH]c3ccc(OC)cc32)c(-c2ccccc2)n1 | > 100 µM | > 100 µM | > 100 µM | 79.6 µM | > 100 µM | > 100 µM | > 100 µM | > 100 µM | > 100 µM | > 100 µM
CCOC(=O)c1cc2c([nH]c3ccc(C)cc32)c(-c2ccc(OC)cc2)n1 | 4.27 µM | 80.1 µM | 41.6 µM | 32.2 µM | 0.61 µM | 23.3 µM | > 100 µM | 25.1 µM | 11.6 µM | 7.07 µM
CCOC(=O)c1cc2c([nH]c3ccc(OC)cc32)c(-c2cccc([N+](=O)[O-])c2)n1 | > 100 µM | > 100 µM | > 100 µM | > 100 µM | > 100 µM | 19.7 µM | > 100 µM | > 100 µM | > 100 µM | > 100 µM
CCOC(=O)c1cc2c([nH]c3ccc(OC)cc32)c(-c2ccccc2Cl)n1 | 12.2 µM | > 100 µM | > 100 µM | > 100 µM | > 100 µM | 7.71 µM | > 100 µM | > 100 µM | 65.6 µM | 22.1 µM
CCOC(=O)c1cc2c([nH]c3ccc(OC)cc32)c(-c2ccc(OC)cc2)n1 | 20.9 µM | > 100 µM | > 100 µM | > 100 µM | > 100 µM | > 100 µM | > 100 µM | > 100 µM | 74.8 µM | 70.8 µM
Fc1ccc(-c2nc(-c3nnn[nH]3)cc3c2[nH]c2ccccc23)cc1 | 64.5 µM | 25.6 µM | 36.6 µM | 10.1 µM | 0.27 µM | 63.3 µM | 71.8 µM | 10.7 µM | 14.8 µM | 8.17 µM
c1ccc(Cn2nnnc2-c2cc3c([nH]c4ccccc43)c(-c3ccccc3)n2)cc1 | 70.6 µM | > 100 µM | 71 µM | 4.4 µM | > 100 µM | 37 µM | > 100 µM | 27.4 µM | 31.9 µM | 63.5 µM
Fc1ccc(-c2nc(-c3nnnn3Cc3ccccc3)cc3c2[nH]c2ccccc23)cc1 | 0.69 µM | 6.51 µM | 2.07 µM | 1.04 µM | 0.57 µM | > 100 µM | 6.11 µM | 0.69 µM | 20.2 µM | 1.38 µM
COC(=O)c1cc2c([nH]c3ccccc32)c(-c2cccc([N+](=O)[O-])c2)n1 | 31.7 µM | > 100 µM | > 100 µM | > 100 µM | > 100 µM | 7.02 µM | > 100 µM | 3.05 µM | > 100 µM | 
COC(=O)c1cc2c([nH]c3ccccc32)c(-c2ccc(N(C)C)cc2)n1 | 20.4 µM | 34 µM | 11.6 µM | 36.8 µM | 28.4 µM | 3.61 µM | 9.56 µM | 21.8 µM | 15.3 µM | 
COC(=O)c1cc2c([nH]c3ccccc32)c(-c2ccc(O)cc2)n1 | 29.5 µM | 25.1 µM | 25.7 µM | 27.5 µM | 21.1 µM | 12 µM | 20.7 µM | > 100 µM | 28.5 µM | 
CCOC(=O)c1cc2c([nH]c3ccc(C)cc32)c(-c2ccccc2)n1 | 10.8 µM | 7.14 µM | 2.66 µM | 5.08 µM | 0.6 µM | 28.2 µM | 20.6 µM | 1.24 µM | 6.96 µM | 7.44 µM
COc1cccc2c1C(=O)c1c(O)c3c(c(O)c1C2=O)C[C@@](O)(C(=O)CO)C[C@@H]3O[C@H]1C[C@H](N)[C@H](O)[C@H](C)O1 [DOXORUBICIN] | 0.15 µM | 2.58 µM | 1.44 µM | 0.073 µM | 0.0087 µM | 0.047 µM | 0.74 µM | 1.11 µM | 0.37 µM | 0.21 µM

Reference: ChEMBL document CHEMBL4351004, “New 3-tetrazolyl-β-carbolines and β-carboline-3-carboxylates with anti-cancer activity” (2019)
